Laboratory results as given in US8258176B2, “Dithiolopyrrolone compounds, the preparation and the use thereof” (Shanghai Institute of Pharmaceutical Industry, priority 2007, dated 2012).

System: peripheral blood leukocytes of normal mice
Assay: Effects on peripheral blood leukocytes of normal mice (peripheral blood routine test)
Format: in vivo
Conditions: G-CSF 22.5 ug/kg sc once a day
Source text: Animal hematology analyzer, model: HEMAVET950 • 2. Method
The mice were divided into blank control group, positive control group and the dithiolopyrrolone series of compounds group, there are 10 mice in each group.

[1] = day 0 (before administration), compounds 20 mg/kg ig once a day
[2] = day 3, compounds 20 mg/kg ig once a day
[3] = day 5, compounds 20 mg/kg ig once a day

Structure (SMILES) | NE % (percentage of neutrophils in the total number of white blood cells) [1] [%] | WBC count [1] [L⁻¹] | NE % (percentage of neutrophils in the total number of white blood cells) [2] [%] | WBC count [2] [L⁻¹] | NE % (percentage of neutrophils in the total number of white blood cells) [3] [%] | WBC count [3] [L⁻¹]
COc1ccc(-n2c3cssc-3c(NC(=O)OCC(C)C)c2=O)c(OC)c1 [compound 002] | 20.11 | 8.12e+09 | 52.13 | 1.189e+10 | 68.69 | 1.678e+10
COc1ccc(-n2c3cssc-3c(NC(=O)OCc3ccccc3)c2=O)c(OC)c1 [compound 003] | 32.51 | 7.84e+09 | 54.34 | 1.456e+10 | 68.30 | 1.744e+10
COC(=O)Nc1c2sscc-2n(-c2ccc(OC)cc2OC)c1=O [compound 005] | 26.46 | 8.08e+09 | 35.55 | 8.76e+09 | 46.65 | 8.64e+09
COc1ccc(-n2c3cssc-3c(NC(=O)OC(C)C)c2=O)c(OC)c1 [compound 007] | 23.31 | 8.11e+09 | 48.67 | 1.188e+10 | 52.02 | 1.222e+10
C=CCOC(=O)Nc1c2sscc-2n(-c2ccc(OC)cc2OC)c1=O [compound 008] | 31.56 | 8.88e+09 | 60.03 | 1.779e+10 | 65.55 | 1.876e+10
CCCOC(=O)Nc1c2sscc-2n(-c2ccc(OC)cc2OC)c1=O [compound 009] | 23.62 | 9.01e+09 | 27.46 | 1.39e+10 | 47.78 | 1.421e+10
COc1ccc(OC(=O)Nc2c3sscc-3n(-c3ccc(OC)cc3OC)c2=O)cc1 [compound 010] | 20.86 | 8.87e+09 | 24.34 | 1.018e+10 | 32.34 | 1.023e+10
CCCCCOC(=O)Nc1c2sscc-2n(-c2ccc(OC)cc2OC)c1=O [compound 011] | 27.68 | 8.76e+09 | 46.65 | 1.146e+10 | 51.87 | 1.188e+10
COc1ccc(-n2c3cssc-3c(NC(=O)OCC3CCCO3)c2=O)c(OC)c1 (stereo not drawn) [compound 012] | 34.02 | 9.03e+09 | 38.98 | 1.146e+10 | 49.07 | 1.201e+10
CCCCOC(=O)Nc1c2sscc-2n(-c2ccc(OC)cc2OC)c1=O [compound 013] | 25.6 | 6.36e+09 | 48.76 | 1.269e+10 | 52.84 | 1.329e+10
COc1ccc(-n2c3cssc-3c(NC(=O)OC3CCCC3)c2=O)c(OC)c1 [compound 014] | 20.81 | 6.78e+09 | 23.39 | 1.156e+10 | 40.40 | 1.201e+10
CCCCCCCOC(=O)Nc1c2sscc-2n(-c2ccc(OC)cc2OC)c1=O [compound 015] | 20.76 | 7.46e+09 | 25.65 | 1.156e+10 | 38.87 | 1.334e+10
COc1ccc(-n2c3cssc-3c(NC(=O)OCCCl)c2=O)c(OC)c1 [compound 016] | 18.79 | 7.34e+09 | 40.47 | 1.047e+10 | 45.76 | 1.156e+10
COc1ccc(-n2c3cssc-3c(NC(=O)Oc3ccc(Cl)cc3)c2=O)c(OC)c1 [compound 017] | 23.24 | 6.36e+09 | 28.88 | 8.67e+09 | 36.90 | 8.88e+09
COc1ccc(-n2c3cssc-3c(NC(=O)Oc3ccc(C)cc3)c2=O)c(OC)c1 [compound 018] | 21.74 | 6.15e+09 | 23.38 | 8.59e+09 | 26.04 | 9.03e+09
COc1ccc(-n2c3cssc-3c(NC(=O)OCc3ccco3)c2=O)c(OC)c1 [compound 019] | 24.36 | 6.88e+09 | 28.89 | 9.35e+09 | 29.84 | 1.087e+10
COc1ccc(-n2c3cssc-3c(NC(=O)OC(C)c3ccccc3)c2=O)c(OC)c1 (stereo not drawn) [compound 020] | 30.03 | 5.09e+09 | 38.66 | 9.61e+09 | 42.49 | 1.122e+10
COc1ccc(-n2c3cssc-3c(NC(=O)OCc3cccs3)c2=O)c(OC)c1 [compound 021] | 29.78 | 5.22e+09 | 36.52 | 9.93e+09 | 49.65 | 1.122e+10
COc1ccc(-n2c3cssc-3c(NC(=O)Oc3cccnc3)c2=O)c(OC)c1 [compound 022] | 31.23 | 6.86e+09 | 38.98 | 1.003e+10 | 47.74 | 1.211e+10
COc1ccc(-n2c3cssc-3c(NC(=O)N3CCOCC3)c2=O)c(OC)c1 [compound 023] | 26.86 | 7.86e+09 | 56.66 | 2.234e+10 | 77.31 | 2.998e+10
COc1ccc(-n2c3cssc-3c(NC(=O)NCc3ccccc3)c2=O)c(OC)c1 [compound 024] | 24.67 | 7.95e+09 | 33.98 | 8.76e+09 | 42.02 | 9.71e+09
COc1ccc(-n2c3cssc-3c(NC(=O)Nc3ccccc3)c2=O)c(OC)c1 [compound 026] | 28.98 | 7.84e+09 | 30.38 | 8.76e+09 | 38.63 | 9.71e+09
CCSC(=O)Nc1c2sscc-2n(-c2ccc(OC)cc2OC)c1=O [compound 027] | 24.45 | 8.76e+09 | 45.46 | 1.122e+10 | 48.37 | 1.254e+10
